This passage reports gall rating scale results from patent publication US20250129031A1, “1,2,3-TRIAZOLE CARBONYL SULFONYLAMIDE COMPOUNDS AND USE THEREOF” (PI INDUSTRIES LTD., priority 2022, published 2025).

The test system of this test is Meloidogyne incognita. In words: Meloidogyne incognita test: gall rating on cucumber plants in pots after soil application. As to conditions: 1000 ppm applied to soil inoculated with 5000 eggs & J2s; cucumber seedlings; rated 30 days after application; 0-10 scale (Zeck 1971); untreated check up to 8. Further details: key: 0: no galls; 1: very few small galls; 2: numerous small galls; 3: numerous small galls of which some are grown together; 4: numerous small and some big galls; 25% of roots severely galled; 6: 50% of roots severely galled; 75% of roots severely galled; 8: no healthy roots but plant is still green; 9: roots rotting and plant dying; 10: plant and roots dead. Format: in vivo. Here is the method: Meloidogyne incognita Test:
The trial pots were filled with soil containing a mixture of sand:soil:cocopeat in a ratio of 1:1:1. To the soil of each pot 5 mL of a nematode suspension (Meloidogyne incognita, mix of 5000 eggs & J2s) was added. One hour later the respective test compound at the stated concentration was applied to each pot. 10 days old cucumber seedlings were transplanted into the pots one day after the application. The cucumber plants were allowed to grow at a temperature of 27° C. under greenhouse conditions. The evaluation of the gall rating was recorded 30 days after the application. The plants were carefully uprooted and the roots were thoroughly washed. The gall rating was done on a 0-10 scale as described by Zeck (1971) and shown below: • 0=no galls • 1=very few small galls • 2=numerous small galls • 3=numerous small galls of which some are grown together • 4=numerous small and some big galls • 5=25% of roots severely galled • 6=50% of roots severely galled • 7=75% of roots severely galled • 8=no healthy roots but plant is still green • 9=roots rotting and plant dying • 10=plant and roots dead

`Cc1c(C(=O)NS(=O)(=O)c2ccccc2C(F)(F)F)nnn1-c1ccc(F)cc1F` [Compound 687] registered a gall rating scale of 4.

In the case of `Cc1c(C(=O)NS(=O)(=O)c2ccc(F)cc2F)nnn1-c1ccc(OC(F)F)cc1Cl` [Compound 672], the gall rating scale is listed as 4.

Regarding `Cc1ccc(C)c(S(=O)(=O)NC(=O)c2nnn(-c3ccc(C#N)cc3F)c2C(F)(F)F)c1` [Compound 536, 1-(4-cyano-2-fluorophenyl)-N-((2,5-dimethylphenyl)sulfonyl)-5-(trifluoromethyl)-1H-1,2,3-triazole-4-carboxamide], the gall rating scale was found to be 4.

Regarding `Cc1ccc(F)cc1S(=O)(=O)NC(=O)c1nnn(-c2ccc(OC(F)(F)F)cc2Cl)c1C(F)(F)F` [Compound 597], the gall rating scale was 4.

Consider `Cc1c(C(=O)NS(=O)(=O)c2cc(Cl)ccc2F)nnn1-c1ccc(C#N)cc1Cl` [Compound 497], for which the gall rating scale is 4.

`Cc1c(C(=O)NS(=O)(=O)c2ccccc2F)nnn1-c1ccc(OC(F)F)cc1Cl` [Compound 668] gave a gall rating scale of 4.

For `Cc1c(C(=O)NS(=O)(=O)c2cc(C(F)(F)F)ccc2Cl)nnn1-c1ccc(F)cc1Cl` [Compound 252, 1-(2-chloro-4-fluorophenyl)-N-((2-chloro-5-(trifluoromethyl)phenyl)sulfonyl)-5-methyl-1H-1,2,3-triazole-4-carboxamide], the gall rating scale is recorded as 4.

Compound `Cc1c(C(=O)NS(=O)(=O)c2ccccc2C(F)(F)F)nnn1-c1ccc(C#N)cc1Cl` [Compound 271] had a gall rating scale of 4.

Compound `Cc1c(C(=O)NS(=O)(=O)c2cc(C(F)(F)F)ccc2Cl)nnn1-c1ccc(Cl)cc1Cl` [Compound 33] registered a gall rating scale of 4.

In turn, `Cc1c(C(=O)NS(=O)(=O)c2cc(F)cc(F)c2)nnn1-c1ccc(OC(F)(F)F)cc1Cl` [Compound 140] showed a gall rating scale of 4.

The compound `Cc1c(C(=O)NS(=O)(=O)c2ccccc2F)nnn1-c1ccc(Cl)cc1Cl` [Compound 278, 1-(2,4-dichlorophenyl)-N-((2-fluorophenyl)sulfonyl)-5-methyl-1H-1,2,3-triazole-4-carboxamide] had a gall rating scale of 4.

As to `COc1ccc(Cl)c(S(=O)(=O)NC(=O)c2nnn(-c3ccc(OC(F)(F)F)cc3Cl)c2C2CC2)c1` [Compound 230, 1-(2-chloro-4-(trifluoromethoxy)phenyl)-N-((2-chloro-5-methoxyphenyl)sulfonyl)-5-cyclopropyl-1H-1,2,3-triazole-4-carboxamide], the gall rating scale was 4.

As to `Cc1c(C(=O)NS(=O)(=O)c2ccccc2F)nnn1-c1ccc(C#N)cc1F` [Compound 415], the gall rating scale came out at 4.

Take `Cc1c(Cl)cccc1S(=O)(=O)NC(=O)c1nnn(-c2ccc(OC(F)(F)F)cc2Cl)c1C(F)(F)F` [Compound 596, N-((3-chloro-2-methylphenyl)sulfonyl)-1-(2-chloro-4-(trifluoromethoxy)phenyl)-5-(trifluoromethyl)-1H-1,2,3-triazole-4-carboxamide]: the gall rating scale was 4.

The compound `COc1ccc(C)cc1S(=O)(=O)NC(=O)c1nnn(-c2ccc(Cl)cc2Cl)c1C(F)(F)F` [Compound 599] yielded a gall rating scale of 4.

For `Cc1c(C(=O)NS(=O)(=O)c2cc(Cl)ccc2F)nnn1-c1ccc(OC(F)(F)F)cc1Cl` [Compound 168, N-((5-chloro-2-fluorophenyl)sulfonyl)-1-(2-chloro-4-(trifluoromethoxy)phenyl)-5-methyl-1H-1,2,3-triazole-4-carboxamide], the gall rating scale is recorded as 4.

For `Cc1c(C(=O)NS(=O)(=O)c2cc(C(F)(F)F)ccc2Cl)nnn1-c1ccc(OC(F)F)cc1Cl` [Compound 665], the gall rating scale is reported as 4.

On to `CCc1c(C(=O)NS(=O)(=O)c2cc(C(F)(F)F)ccc2Cl)nnn1-c1ccc(OC(F)(F)F)cc1Cl` [Compound 311, 1-(2-chloro-4-(trifluoromethoxy)phenyl)-N-((2-chloro-5-(trifluoromethyl)phenyl)sulfonyl)-5-ethyl-1H-1,2,3-triazole-4-carboxamide], for which the gall rating scale was determined as 4.

`COc1ccc(Cl)c(S(=O)(=O)NC(=O)c2nnn(-c3ccc(Cl)cc3C(F)(F)F)c2C(F)(F)F)c1` [Compound 57] showed a gall rating scale of 4.

Compound `Cc1c(C(=O)NS(=O)(=O)c2cc(C(F)(F)F)ccc2Br)nnn1-c1ccc(C#N)cc1Cl` [Compound 458] displayed a gall rating scale of 4.

Compound `Cc1c(C(=O)NS(=O)(=O)c2ccccc2C(F)(F)F)nnn1-c1cc(Cl)ccc1Cl` [Compound 259, 1-(2,5-dichlorophenyl)-5-methyl-N-((2-(trifluoromethyl)phenyl)sulfonyl)-1H-1,2,3-triazole-4-carboxamide] came in with a gall rating scale of 4.

On to `Cc1c(C(=O)NS(=O)(=O)c2ccccc2C(F)(F)F)nnn1-c1ccc(Cl)cc1F` [Compound 443], for which the gall rating scale amounted to 4.

`Cc1c(C(=O)NS(=O)(=O)c2cc(C(F)(F)F)ccc2Cl)nnn1-c1cc(Cl)cc(Cl)c1` [Compound 253] displayed a gall rating scale of 4.

For `COc1ccc(Cl)c(S(=O)(=O)NC(=O)c2nnn(-c3ccc(OC(F)(F)F)cc3Cl)c2C)c1` [Compound 133], the gall rating scale was found to be 4.

In turn, `Cc1ccc(C)c(S(=O)(=O)NC(=O)c2nnn(-c3ccc(C#N)cc3Cl)c2C)c1` [Compound 328] displayed a gall rating scale of 4.

`Cc1c(C(=O)NS(=O)(=O)c2ccccc2Cl)nnn1-c1ccc(OC(F)F)cc1Cl` [Compound 671] returned a gall rating scale of 4.

`Cc1c(C(=O)NS(=O)(=O)c2ccccc2F)nnn1-c1cc(Cl)cc(C(F)(F)F)c1` [Compound 96] registered a gall rating scale of 4.

The compound `Cc1c(C(=O)NS(=O)(=O)c2ccc(F)cc2F)nnn1-c1ccc(C#N)cc1F` [Compound 413] gave a gall rating scale of 4.

Compound `O=C(NS(=O)(=O)c1ccccc1OC(F)(F)F)c1nnn(-c2cc(Cl)ccc2Cl)c1C(F)(F)F` [Compound 370, 1-(2,5-dichlorophenyl)-N-((2-(trifluoromethoxy)phenyl)sulfonyl)-5-(trifluoromethyl)-1H-1,2,3-triazole-4-carboxamide] gave a gall rating scale of 4.

`Cc1c(C(=O)NS(=O)(=O)c2ccc(F)cc2)nnn1-c1cc(Cl)cc(Cl)c1` [Compound 25] yielded a gall rating scale of 4.

`Cc1c(C(=O)NS(=O)(=O)c2cc(C(F)(F)F)ccc2C(F)(F)F)nnn1-c1ccc(Cl)cc1F` [Compound 441] registered a gall rating scale of 4.

Regarding `O=C(NS(=O)(=O)c1c(F)cccc1F)c1nnn(-c2ccc(Cl)cc2C(F)(F)F)c1C(F)(F)F` [Compound 52], the gall rating scale is given as 4.

With `COc1ccc(Cl)c(S(=O)(=O)NC(=O)c2nnn(-c3cc(C(F)(F)F)cc(C(F)(F)F)c3)c2C)c1` [Compound 108], the gall rating scale is 4.

On to `N#Cc1ccc(-n2nnc(C(=O)NS(=O)(=O)c3ccccc3C(F)(F)F)c2C(F)(F)F)c(Cl)c1` [Compound 394, 1-(2-chloro-4-cyanophenyl)-5-(trifluoromethyl)-N-((2-(trifluoromethyl)phenyl)sulfonyl)-1H-1,2,3-triazole-4-carboxamide], for which the gall rating scale was found to be 4.

The compound `Cc1c(C(=O)NS(=O)(=O)c2cc(C(F)(F)F)ccc2C(F)(F)F)nnn1-c1c(Cl)cc(Cl)cc1Cl` [Compound 430] came in with a gall rating scale of 4.

The compound `COc1ccc(C)cc1S(=O)(=O)NC(=O)c1nnn(-c2ccc(OC(F)(F)F)cc2Cl)c1C` [Compound 587] gave a gall rating scale of 4.

As for `O=C(NS(=O)(=O)c1ccccc1)c1nnn(-c2cc(Cl)cc(Cl)c2)c1C(F)(F)F` [Compound 35, 1-(3,5-dichlorophenyl)-N-(phenylsulfonyl)-5-(trifluoromethyl)-1H-1,2,3-triazole-4-carboxamide], the gall rating scale came to 4.

With `Cc1c(C(=O)NS(=O)(=O)c2cc(C(F)(F)F)ccc2C(F)(F)F)nnn1-c1ccc(F)cc1F` [Compound 690], the gall rating scale stood at 4.

For `Cc1c(C(=O)NS(=O)(=O)c2cc(Cl)c(Cl)cc2Cl)nnn1-c1ccc(OC(F)F)cc1Cl` [Compound 676], the gall rating scale came out at 4.

`Cc1ccccc1S(=O)(=O)NC(=O)c1nnn(-c2ccc(C#N)cc2Cl)c1C(F)(F)F` [Compound 396, 1-(2-chloro-4-cyanophenyl)-N-(o-tolylsulfonyl)-5-(trifluoromethyl)-1H-1,2,3-triazole-4-carboxamide] returned a gall rating scale of 4.

Consider `COc1ccc(Cl)c(S(=O)(=O)NC(=O)c2nnn(-c3ccc(Cl)cc3Cl)c2C)c1` [Compound 56], for which the gall rating scale is reported as 4.

The compound `Cc1c(C(=O)NS(=O)(=O)c2ccc(Cl)c(F)c2)nnn1-c1ccc(C#N)cc1Cl` [Compound 499] had a gall rating scale of 4.

In turn, `COc1ccc(Cl)cc1S(=O)(=O)NC(=O)c1nnn(-c2ccc(OC(F)(F)F)cc2Cl)c1C` [Compound 586] displayed a gall rating scale of 4.

With `Cc1c(C(=O)NS(=O)(=O)c2cc(C(F)(F)F)ccc2Br)nnn1-c1ccc(Cl)cc1Cl` [Compound 261], the gall rating scale is recorded as 4.

The compound `Cc1c(C(=O)NS(=O)(=O)c2cc(Cl)ccc2Cl)nnn1-c1ccc(OC(F)(F)F)cc1Cl` [Compound 134, 1-(2-chloro-4-(trifluoromethoxy)phenyl)-N-((2,5-dichlorophenyl)sulfonyl)-5-methyl-1H-1,2,3-triazole-4-carboxamide] came in with a gall rating scale of 4.
